In patent publication US20120129892A1, “NOVEL PHARMACEUTICALLY ACCEPTABLE SALTS OF 4-(1H-IMIDAZOL-4-[…])PYRIDINE AND THEIR THERAPEUTICAL USES” (BIOPROJET, priority 2009, published 2012):
Counter-ions that a name gives are not always drawn. Like-named read-outs stand apart in the source and are kept apart here.

Key:
H3R in brain [1] = molecular target: H3R in brain (Mus musculus, UniProt P58406); settings: mice, oral, immethridine base and salts at 0.3 mg/kg, imetit: maximal reduction
human HMT = human HMT (Homo sapiens, UniProt P50135); experiment: tele-methylation by HMT, cytosol of fresh human hepatocytes, Lineweaver-Burk analysis; settings: pH 7.4, 20 μM (S)-adenosyl methionine
[2] = stability on heating at 80° C. during one week, HPLC analysis
[3] = hygroscopy: water uptake in a water-saturated atmosphere at room temperature; type: physicochemical; settings: a few days in water-saturated atmosphere at room temperature, listed as immethridine dioxalate
[4] = molecular target: recombinant human cytochrome P450 2D6 (Homo sapiens, UniProt P10635); experiment: inhibition of recombinant human cytochrome P450 2D6; type: in vitro ADME; settings: read-out: IC50 at 2D6 isoform
Description: (§1) These values are over 3 orders of magnitude higher than the expected plasma or tissue concentrations at therapeutic dosage.

[5] = molecular target: recombinant human cytochrome P450 3A4 (Homo sapiens, UniProt P08684); experiment: inhibition of recombinant human cytochrome P450 3A4; type: in vitro ADME; settings: read-out: IC50 at 3A4 isoform
Description: as §1

[6] = AUCs of unchanged drug and tele methylated derivative in mouse brain and blood; type: in vivo; settings: 1 mg/kg, p.o.
hERG potassium channel [7] = molecular target: T1, hERG potassium channel (Homo sapiens, UniProt Q12809); experiment: potassium hERG current, functional patch clamp assay in HEK-293 cells; settings: concentrations up to 10 μM
[8] = test system: human CYP 450 isoforms (3A4, 2C9, 2E1, 2B6) and UGTs; experiment: induction of CYP 450 isoforms and UGTs in human hepatocytes; type: in vitro ADME; settings: concentrations over 3 orders of magnitude higher than expected therapeutic concentrations
[9] = molecular target: recombinant human cytochrome P450 2C9 (Homo sapiens, UniProt P11712); experiment: inhibition of recombinant human cytochrome P450 2C9; type: in vitro ADME; settings: read-out: IC50 at 2C9 isoform
Description: as §1

recombinant hH3R = molecular target: T2, recombinant hH3R (Homo sapiens, UniProt Q9Y5N1); experiment: [35S]GTPγS binding activation on recombinant hH3R expressed in HEK 293 cells; type: biochemical
T2 construct: expressed in transfected cells; host or cells: HEK 293 cells

human H3R = human H3R (Homo sapiens, UniProt Q9Y5N1); experiment: β arrestin translocation; type: cell-based
H3R = molecular target: T3, H3R (Rattus norvegicus, UniProt Q9QYN8); settings: rats, intraperitoneal, doses as high as 10 mg/kg necessary (Celanire et al.); cited from earlier work
T3 construct: host or cells: living rats (brain)

[10] = AUCs of unchanged drug and metabolite in rat brain and blood; settings: Sprague-Dawley, po, 1 mg/kg
H3R in brain [11] = experiment: reduction of brain tele methylhistamine levels after oral dosing (ED50)
[12] = withdrawal symptoms after interruption of repeated Zolpidem treatment in rats; type: in vivo; settings: 18 days 20 mg/kg o.d. oral Zolpidem followed by 0.3 mg/kg, p.o.
Procedure: (§2) Accordingly, rats treated orally for 18 days by 20 mg/kg o.d.

[13] = general tolerance in rodents; type: in vivo; settings: doses as high as 100 mg/kg
Procedure: as §2

[14] = sleep EEG recording in rats (24-hr recordings); type: in vivo; settings: for tolerance to sleep-promoting / hypnotic effect: repeated o.d. administration over several days
Description: While the sleep-promoting activity of several other H3R agonists has been previously described (Lin et al., Brain Res., 1990, 523, 325-330; Monti et al., Neuropsychopharmacology, 1996, 15, 31-35), much higher dosages—by two to three orders of magnitude—were required to obtain this effect.
This is in contrast with the long-lasting disorders of circadian rhythms, namely the relative insomnia, which occur at the interruption of a repeated treatment with benzodiazepines or imidazopyridines such as Zolpidem.

hERG potassium channel [15] = molecular target: T1, hERG potassium channel; experiment: [3H]dofetidide binding assay, HEK-293 cells stably expressing hERG; settings: concentrations up to 10 μM

H3R in brain (Mus musculus, UniProt P58406), sequence (P58406 whole entry): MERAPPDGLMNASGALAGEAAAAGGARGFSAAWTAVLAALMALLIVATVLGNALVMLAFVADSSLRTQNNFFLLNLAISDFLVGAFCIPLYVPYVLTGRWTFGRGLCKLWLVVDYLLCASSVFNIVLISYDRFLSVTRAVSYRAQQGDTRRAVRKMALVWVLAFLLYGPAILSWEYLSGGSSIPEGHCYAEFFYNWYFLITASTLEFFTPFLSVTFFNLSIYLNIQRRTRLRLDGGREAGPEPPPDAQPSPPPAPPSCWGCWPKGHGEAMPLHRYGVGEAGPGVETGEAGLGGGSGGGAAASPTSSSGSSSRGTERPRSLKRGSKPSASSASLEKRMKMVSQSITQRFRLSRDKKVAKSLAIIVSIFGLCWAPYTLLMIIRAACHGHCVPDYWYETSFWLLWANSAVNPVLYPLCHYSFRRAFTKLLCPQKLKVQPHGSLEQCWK
T1 sequence (Q12809 whole entry, canonical isoform): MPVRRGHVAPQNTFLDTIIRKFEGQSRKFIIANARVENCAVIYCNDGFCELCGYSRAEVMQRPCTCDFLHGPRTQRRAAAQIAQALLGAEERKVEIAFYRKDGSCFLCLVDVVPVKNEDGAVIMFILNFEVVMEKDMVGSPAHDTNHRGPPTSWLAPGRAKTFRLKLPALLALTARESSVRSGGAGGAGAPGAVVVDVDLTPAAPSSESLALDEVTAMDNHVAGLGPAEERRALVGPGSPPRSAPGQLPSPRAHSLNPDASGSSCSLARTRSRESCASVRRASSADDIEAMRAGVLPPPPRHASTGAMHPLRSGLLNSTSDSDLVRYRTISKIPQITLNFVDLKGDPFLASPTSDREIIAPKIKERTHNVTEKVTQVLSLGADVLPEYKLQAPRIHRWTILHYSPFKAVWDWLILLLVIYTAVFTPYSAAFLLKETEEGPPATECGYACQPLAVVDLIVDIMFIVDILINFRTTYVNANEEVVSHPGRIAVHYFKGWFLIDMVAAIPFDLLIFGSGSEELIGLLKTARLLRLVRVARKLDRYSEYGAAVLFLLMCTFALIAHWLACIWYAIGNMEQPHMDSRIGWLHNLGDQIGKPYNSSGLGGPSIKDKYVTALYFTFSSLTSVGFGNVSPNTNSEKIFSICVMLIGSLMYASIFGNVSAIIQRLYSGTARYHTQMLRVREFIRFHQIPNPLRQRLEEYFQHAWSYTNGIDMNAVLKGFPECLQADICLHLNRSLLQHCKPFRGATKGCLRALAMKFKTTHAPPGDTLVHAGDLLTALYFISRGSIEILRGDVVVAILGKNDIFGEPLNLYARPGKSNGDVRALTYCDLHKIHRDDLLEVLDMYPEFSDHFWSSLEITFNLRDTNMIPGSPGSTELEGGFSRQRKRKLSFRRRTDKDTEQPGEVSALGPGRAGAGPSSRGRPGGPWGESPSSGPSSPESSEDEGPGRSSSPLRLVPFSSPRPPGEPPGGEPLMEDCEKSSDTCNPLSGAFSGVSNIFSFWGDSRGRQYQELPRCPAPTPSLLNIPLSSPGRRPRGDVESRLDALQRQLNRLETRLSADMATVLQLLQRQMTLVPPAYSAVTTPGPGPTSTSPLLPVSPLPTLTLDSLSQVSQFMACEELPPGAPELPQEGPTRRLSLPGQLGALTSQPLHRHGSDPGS
T2 sequence (Q9Y5N1 whole entry): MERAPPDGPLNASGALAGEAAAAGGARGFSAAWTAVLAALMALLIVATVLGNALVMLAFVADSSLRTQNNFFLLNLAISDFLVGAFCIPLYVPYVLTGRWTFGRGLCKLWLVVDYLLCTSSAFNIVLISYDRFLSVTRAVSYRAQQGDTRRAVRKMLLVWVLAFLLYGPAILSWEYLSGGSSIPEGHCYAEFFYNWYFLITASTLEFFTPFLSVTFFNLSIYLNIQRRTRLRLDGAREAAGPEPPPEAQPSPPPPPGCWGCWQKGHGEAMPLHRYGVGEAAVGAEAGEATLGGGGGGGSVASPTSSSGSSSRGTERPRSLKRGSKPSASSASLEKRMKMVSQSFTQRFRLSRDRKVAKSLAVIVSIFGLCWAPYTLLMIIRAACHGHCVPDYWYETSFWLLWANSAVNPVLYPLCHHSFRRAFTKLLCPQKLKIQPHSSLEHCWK
human H3R, sequence (Q9Y5N1 whole entry): as above
human HMT, sequence (P50135 whole entry): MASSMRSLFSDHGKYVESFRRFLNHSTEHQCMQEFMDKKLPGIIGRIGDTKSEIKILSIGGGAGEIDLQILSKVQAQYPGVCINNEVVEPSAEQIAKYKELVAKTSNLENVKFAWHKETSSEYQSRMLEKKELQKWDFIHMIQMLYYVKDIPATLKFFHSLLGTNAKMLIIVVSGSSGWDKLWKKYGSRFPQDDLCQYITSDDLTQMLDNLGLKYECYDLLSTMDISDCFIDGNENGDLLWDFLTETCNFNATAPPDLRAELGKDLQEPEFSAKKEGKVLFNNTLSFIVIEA
recombinant human cytochrome P450 2C9, sequence (P11712 whole entry, canonical isoform): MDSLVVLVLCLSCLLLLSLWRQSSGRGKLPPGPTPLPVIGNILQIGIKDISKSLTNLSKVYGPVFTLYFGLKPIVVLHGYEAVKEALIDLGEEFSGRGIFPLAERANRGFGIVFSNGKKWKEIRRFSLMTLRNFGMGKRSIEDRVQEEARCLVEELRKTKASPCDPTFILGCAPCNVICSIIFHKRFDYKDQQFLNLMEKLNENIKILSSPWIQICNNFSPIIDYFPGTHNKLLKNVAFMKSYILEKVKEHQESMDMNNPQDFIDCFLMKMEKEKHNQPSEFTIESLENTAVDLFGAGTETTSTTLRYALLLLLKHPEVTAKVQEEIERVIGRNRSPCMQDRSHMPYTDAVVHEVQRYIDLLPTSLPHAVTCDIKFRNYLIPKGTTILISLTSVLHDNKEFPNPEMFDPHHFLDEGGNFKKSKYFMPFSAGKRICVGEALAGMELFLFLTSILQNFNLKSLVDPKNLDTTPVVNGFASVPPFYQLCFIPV
recombinant human cytochrome P450 3A4, sequence (P08684 whole entry, canonical isoform): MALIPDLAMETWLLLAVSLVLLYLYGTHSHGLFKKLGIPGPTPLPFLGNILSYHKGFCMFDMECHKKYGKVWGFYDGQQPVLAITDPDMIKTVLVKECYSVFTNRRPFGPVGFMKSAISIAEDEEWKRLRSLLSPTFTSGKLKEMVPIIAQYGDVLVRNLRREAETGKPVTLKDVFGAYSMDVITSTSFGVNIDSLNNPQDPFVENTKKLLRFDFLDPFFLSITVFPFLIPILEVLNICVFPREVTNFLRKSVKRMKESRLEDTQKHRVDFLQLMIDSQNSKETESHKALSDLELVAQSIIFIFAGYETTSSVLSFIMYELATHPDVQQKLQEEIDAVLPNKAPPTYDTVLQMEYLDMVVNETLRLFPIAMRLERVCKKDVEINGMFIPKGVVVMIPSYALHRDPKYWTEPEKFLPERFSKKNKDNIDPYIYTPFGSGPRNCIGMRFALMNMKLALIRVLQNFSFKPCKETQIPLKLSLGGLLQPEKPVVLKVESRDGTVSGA
T3 sequence (Q9QYN8 whole entry): as the sequence (P58406 whole entry) above, with A15T, T286A, G290A, H387R, V389I counted along it
recombinant human cytochrome P450 2D6, sequence (P10635 whole entry, canonical isoform): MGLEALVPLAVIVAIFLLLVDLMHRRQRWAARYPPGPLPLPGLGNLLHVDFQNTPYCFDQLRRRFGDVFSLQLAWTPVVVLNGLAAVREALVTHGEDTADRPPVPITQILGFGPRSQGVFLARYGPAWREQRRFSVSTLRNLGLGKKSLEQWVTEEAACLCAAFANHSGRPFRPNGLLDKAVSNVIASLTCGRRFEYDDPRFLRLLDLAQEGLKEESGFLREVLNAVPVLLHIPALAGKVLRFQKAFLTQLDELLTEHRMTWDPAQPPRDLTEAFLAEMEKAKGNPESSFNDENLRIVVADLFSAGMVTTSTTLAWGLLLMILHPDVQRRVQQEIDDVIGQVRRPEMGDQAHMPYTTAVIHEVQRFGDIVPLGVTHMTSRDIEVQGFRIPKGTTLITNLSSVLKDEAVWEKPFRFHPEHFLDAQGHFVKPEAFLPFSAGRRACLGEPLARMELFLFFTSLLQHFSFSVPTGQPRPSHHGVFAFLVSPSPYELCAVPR

c1cc(Cc2c[nH]cn2)ccn1 [BP1.5375 (alpha keto-glutarate salt)]
t-methylhistamine brain level variation vs. control, mean (%) (H3R in brain [1]; listed as Immethridine alpha-ketoglutarate, 0.3 mg/kg): −46.1%

c1cc(Cc2c[nH]cn2)ccn1 [BP1.5375 (dibromhydrate salt)]
Vm (human HMT): 0.004 µM/min

c1cc(Cc2cnc[nH]2)ccn1 [BP1.5375 (dioxalate salt), 4-(1H-imidazol-4-ylmethyl)-pyridine dioxalate]
stability when heated ([2]; listed as immethridine dioxalate, dioxalate): no apparent degradation
water uptake, % of weight [3]: 13-15%

c1cc(Cc2c[nH]cn2)ccn1 [BP1.5375 (ditoluenesulfonate salt)]
Vm (human HMT): 0.004 µM/min
t-methylhistamine brain level variation vs. control, mean (%) (H3R in brain [1]; listed as Immethridine di p-toluene sulfonate, 0.3 mg/kg): −41.6%

c1cc(Cc2cnc[nH]2)ccn1 [BP1.5375, 4-(1H-imidazol-4-yl-methyl)-pyridine]
IC50 [4]: ≥ 100 µM
IC50 [5]: 29.3 µM
t-methylhistamine brain level variation vs. control, mean (%) (H3R in brain [1]; 0.3 mg/kg): −42.1%
ratio of brain/blood AUCs [6]: close to unit
inhibition of potassium hERG current (hERG potassium channel [7]): not to inhibit
induction of CYP 450 isoforms (3A4, 2C9, 2E1, 2B6) and UGTs [8]: not induced
IC50 [9]: 3.1 µM
EC50 (recombinant hH3R): ~0.001 µM
intrinsic activity compared with histamine (recombinant hH3R; [35S]GTPγS binding, hH3R): 0.75
EC50 (human H3R): ~0.017 µM
intrinsic activity compared to histamine (human H3R; β arrestin translocation): 0.5
decrease of histamine in brain (H3R): modestly decrease histamine in brain
Kp [10]: 2.6
stability when heated ([2]; listed as immethridine): darkens
ED50, reduction of levels of tele methylhistamine in brain (H3R in brain [11]; given orally to rats or mice): ~30 micrograms/kg
tele methylhistamine response upon repeated administration (H3R in brain [11]; repeated administration over 7 days): maintained
occurrence of withdrawal symptoms after Zolpidem interruption [12]: prevents the occurrence of withdrawal symptoms
apparent toxicity sign [13]: does not induce any apparent toxicity sign
rebound / sleep pattern upon interruption of repeated treatment ([14]; after interruption of 6-day treatment with 0.3 mg/kg, p.o.): does not give rise to a rebound phenomenon
tolerance to sleep-promoting / hypnotic effect [14]: does not diminish
duration of deep SWS (slow wave sleep) period ([14]; same very low dosages, administered 30 min before start of light-on period): enhanced significantly
inhibition of [3H]dofetidide binding (hERG potassium channel [15]): not to inhibit

c1cc(Cc2cnc[nH]2)ccn1 [Immethridine dihydrochloride]
t-methylhistamine brain level variation vs. control, mean (%) (H3R in brain [1]): −37.0%

CS(=O)(=O)O.CS(=O)(=O)O.c1cc(Cc2c[nH]cn2)ccn1 [Immethridine methane sulfonate]
t-methylhistamine brain level variation vs. control, mean (%) (H3R in brain [1]): −40.0%

Cc1ccc(-c2nc3ccc(C)cn3c2CC(=O)N(C)C)cc1 [Zolpidem, reference compound]
withdrawal symptoms upon interruption of repeated treatment ([14]; after interruption of 15-day treatment with 20 mg/kg, p.o.): increases in sleep onset latency, decrease in deep sleep
tolerance to sleep-promoting / hypnotic effect [14]: rapid development of tolerance
